# Data published in patent US4634783A, “Novel amidine compound” (Torii & Co. Ltd., priority 1983, dated 1987).
# Read-outs that look alike come from different tables or passages of the source.
# Key:
# [1] = target: T1, Trypsin (Bos taurus, UniProt P00760); experiment: anti-trypsin activity (hydrolysis of TAME); assay type: biochemical; settings: read-out: ID50 Trypsin
# T1 sequence (P00760 24-246): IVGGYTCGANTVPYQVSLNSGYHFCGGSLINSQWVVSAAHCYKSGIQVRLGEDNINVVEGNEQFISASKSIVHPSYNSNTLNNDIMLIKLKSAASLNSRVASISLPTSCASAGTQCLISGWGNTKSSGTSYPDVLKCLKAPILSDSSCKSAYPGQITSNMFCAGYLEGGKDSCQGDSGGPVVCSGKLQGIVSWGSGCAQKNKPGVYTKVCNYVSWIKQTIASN
# Protocol: (§1) The anti-trypsin, anti-plasmin, anti-kallikrein and anti-thrombin activities were determined according to the method of Muramatsu et al. [M. Muramatsu, T. Onishi, S. Makino, Y. Hayashi and S. Fujii, J. of Biochem., 58, 214 (1965)]. […] The compound No. corresponds to the compound number shown in Examples.
# [2] = target: Plasmin (Homo sapiens, UniProt P00747); experiment: anti-plasmin activity (hydrolysis of TAME); assay type: biochemical; settings: for IC50: TAME hydrolysis, read-out: ID50 Plasmin; for inhibition at 10 µM: at 1×10^-5 M, figure in parentheses, read-out: percentage inhibition Plasmin
# Chain of Plasmin (P00747 581-810 limits assumed, species assumed): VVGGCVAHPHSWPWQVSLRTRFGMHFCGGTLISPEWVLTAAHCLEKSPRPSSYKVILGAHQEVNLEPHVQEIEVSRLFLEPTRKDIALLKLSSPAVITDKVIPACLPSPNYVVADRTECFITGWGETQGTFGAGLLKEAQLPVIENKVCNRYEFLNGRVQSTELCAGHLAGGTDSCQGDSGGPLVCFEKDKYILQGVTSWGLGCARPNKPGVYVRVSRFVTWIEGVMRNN
# Chain of Plasmin (P00747 97-580 limits assumed, species assumed): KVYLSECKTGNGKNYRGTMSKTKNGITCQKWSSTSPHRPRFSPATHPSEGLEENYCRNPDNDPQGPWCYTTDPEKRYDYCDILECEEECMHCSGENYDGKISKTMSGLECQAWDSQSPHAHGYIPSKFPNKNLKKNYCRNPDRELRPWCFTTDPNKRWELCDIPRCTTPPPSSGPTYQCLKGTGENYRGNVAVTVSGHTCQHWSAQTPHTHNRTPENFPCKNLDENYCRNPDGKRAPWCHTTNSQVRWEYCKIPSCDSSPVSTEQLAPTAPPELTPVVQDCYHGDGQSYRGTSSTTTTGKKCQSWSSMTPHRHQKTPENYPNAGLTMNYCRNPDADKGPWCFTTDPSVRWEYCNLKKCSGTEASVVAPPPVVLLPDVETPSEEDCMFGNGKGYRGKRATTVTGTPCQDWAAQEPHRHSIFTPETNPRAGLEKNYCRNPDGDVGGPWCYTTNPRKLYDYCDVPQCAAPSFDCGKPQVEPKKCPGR
# Protocol: as §1
# [3] = test system: Kallikrein; experiment: anti-kallikrein activity (hydrolysis of TAME); assay type: biochemical; settings: for IC50: TAME hydrolysis, read-out: ID50 Kallikrein; for percentage inhibition Kallikrein: at 1×10^-5 M, figure in parentheses
# Protocol: as §1
# [4] = target: Thrombin (Homo sapiens, UniProt P00734); experiment: biochemical; settings: for IC50: read-out: ID50 Thrombin; for inhibition at 10 µM: at 1×10^-5 M, figure in parentheses, read-out: percentage inhibition Thrombin
# [5] = target: T2, C1r (Homo sapiens, UniProt P00736); experiment: anti-C1 esterase (C1r) activity (hydrolysis of AAME); assay type: biochemical; settings: for IC50: AAME hydrolysis, read-out: ID50 C1r; for inhibition at 10 µM: at 1×10^-5 M, figure in parentheses, read-out: percent inhibition C1r
# T2 sequence (P00736 464-705 limits assumed): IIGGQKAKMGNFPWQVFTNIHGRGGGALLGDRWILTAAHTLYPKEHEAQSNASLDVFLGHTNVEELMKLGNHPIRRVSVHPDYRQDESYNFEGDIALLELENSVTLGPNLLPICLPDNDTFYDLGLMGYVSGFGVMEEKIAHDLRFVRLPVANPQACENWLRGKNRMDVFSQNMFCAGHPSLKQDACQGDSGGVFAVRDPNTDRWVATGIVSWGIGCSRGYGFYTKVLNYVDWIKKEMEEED
# T2 sequence (P00736 18-463 limits assumed): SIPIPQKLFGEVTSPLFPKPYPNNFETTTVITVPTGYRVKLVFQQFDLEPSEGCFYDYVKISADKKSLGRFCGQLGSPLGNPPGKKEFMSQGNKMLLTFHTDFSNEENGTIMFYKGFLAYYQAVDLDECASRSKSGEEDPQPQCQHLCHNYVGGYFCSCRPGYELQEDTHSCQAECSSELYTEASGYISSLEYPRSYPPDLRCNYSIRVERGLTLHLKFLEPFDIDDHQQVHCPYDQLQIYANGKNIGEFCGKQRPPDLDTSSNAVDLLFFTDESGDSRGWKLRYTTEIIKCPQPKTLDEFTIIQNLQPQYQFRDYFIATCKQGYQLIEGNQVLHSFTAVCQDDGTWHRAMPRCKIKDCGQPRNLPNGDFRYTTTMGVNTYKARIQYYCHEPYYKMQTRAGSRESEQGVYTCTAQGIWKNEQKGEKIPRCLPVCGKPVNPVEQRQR
# Protocol: (§2) The anti-C1 esterase (C1r, C1s) activity was determined according to the method of Okamura et al. [K. Okamura, M. Muramatsu and B. Fujii, Biochem. Biophys. Acta, 295, 252-257 (1973)]. The inhibition of complement mediated hemolysis was determined according to the method of Baker et al. [B. R. Baker and E. H. Erickson, J. Med. Chem., 12, 408-414 (1969)]. The figures in Table 2 have the following meanings:
# C1r: Molar concentration of the test compound which inhibits 50% of the ability of C1r to hydrolyse AAME (acetylarginin methyl ester) (ID50).
# [6] = target: T3, C1s (Homo sapiens, UniProt P09871); experiment: anti-C1 esterase (C1s) activity (hydrolysis of ATEE); assay type: biochemical; settings: for IC50: ATEE hydrolysis, read-out: ID50 C1s; for inhibition at 10 µM: at 1×10^-5 M, figure in parentheses, read-out: percent inhibition C1s
# T3 sequence (P09871 438-688 limits assumed): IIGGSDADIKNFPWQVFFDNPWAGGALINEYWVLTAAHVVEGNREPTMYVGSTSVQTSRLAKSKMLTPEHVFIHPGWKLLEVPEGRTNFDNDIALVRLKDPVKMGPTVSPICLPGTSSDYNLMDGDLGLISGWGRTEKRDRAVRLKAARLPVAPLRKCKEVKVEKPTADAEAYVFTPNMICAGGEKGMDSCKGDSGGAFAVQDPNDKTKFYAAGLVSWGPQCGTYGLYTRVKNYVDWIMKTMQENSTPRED
# T3 sequence (P09871 16-437 limits assumed): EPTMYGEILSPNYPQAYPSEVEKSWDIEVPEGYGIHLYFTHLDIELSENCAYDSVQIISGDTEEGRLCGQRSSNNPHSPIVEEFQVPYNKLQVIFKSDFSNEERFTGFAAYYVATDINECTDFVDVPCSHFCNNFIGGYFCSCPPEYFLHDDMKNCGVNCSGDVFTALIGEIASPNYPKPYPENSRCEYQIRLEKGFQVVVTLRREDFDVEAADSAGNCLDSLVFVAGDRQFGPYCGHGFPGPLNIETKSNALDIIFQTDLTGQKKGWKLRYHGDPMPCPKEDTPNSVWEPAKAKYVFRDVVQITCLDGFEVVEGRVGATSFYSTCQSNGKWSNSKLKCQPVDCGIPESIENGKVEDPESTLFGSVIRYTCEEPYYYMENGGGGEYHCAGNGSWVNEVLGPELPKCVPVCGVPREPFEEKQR
# Protocol: as §2
# C1s: Molar concentration of the test compound which inhibits 50% of the ability of C1s to hydrolyse ATEE (acetyltyrosin ethyl ester) (ID50).
# [7] = test system: complement mediated hemolysis; experiment: inhibition of complement mediated hemolysis; assay type: cell-based
# Protocol: The complement mediated hemolysis is widely used as a means to determine the titration of complement. The principle of this method is based on the fact that hemolysis is caused by the activation of complement, when the latter is added to a complex (immune complex) of erythrocytes and the antibody thereof. The degree of hemolysis varies in proportion to the amount of complement added. Therefore, when a known amount of complement admixed with a C1 esterase inhibitor is used, the hemolysis must be suppressed in proportion to the inhibitory activity.
# as §2
# Inhibition of complement mediated hemolysis (%): The inhibitory activity is shown in terms of percent inhibition of the compound at varied concentrations: […]
Structure (SMILES),IC50 [1] [nM],IC50 [2] [nM],IC50 [3] [nM],IC50 ([4]; TAME hydrolysis) [nM],IC50 [5] [nM],IC50 [6] [nM],Inhibition of complement mediated hemolysis ([7]; 1 × 10^-4) [%],Inhibition of complement mediated hemolysis ([7]; 1 × 10^-5) [%],Inhibition of complement mediated hemolysis ([7]; 1 × 10^-6) [%],Inhibition of complement mediated hemolysis ([7]; 1 × 10^-7),percentage inhibition Kallikrein [3],inhibition at 10 µM [4] [%],inhibition at 10 µM [5] [%],inhibition at 10 µM [2] [%],inhibition at 10 µM [6] [%],IC50 [4] [nM]
"N=C(N)Nc1ccc(CCc2ccc(C(=O)Oc3ccc4cc(C(=N)N)ccc4c3)o2)cc1 [compound 2, 6-amidino-2-naphthyl 5-(p-guanidinophenylethyl)-furan-2-carboxylate]",200,400,300,500,200,400,100,100,97,89%,–,–,–,–,–,–
N=C(N)c1ccc2cc(OC(=O)c3ccco3)ccc2c1 [compound 3],400,1000,–,400,500,4000,100,100,100,100%,NE (the percentage inhibition is less than 10%),–,–,–,–,–
N=C(N)c1ccc2cc(OC(=O)c3ccoc3)ccc2c1 [compound 4],2000,1000,–,700,600,300,100,65,30,NE (the percentage inhibition is less than 10%),43%,–,–,–,–,–
N=C(N)c1ccc2cc(OC(=O)c3ccc(COCc4ccccc4)o3)ccc2c1 [compound 7],500,3000,2000,400,300,4000,100,98,96,98%,–,–,–,–,–,–
N=C(N)c1ccc2cc(OC(=O)c3ccc(CO)o3)ccc2c1 [compound 8],400,2000,4000,600,–,4000,100,100,97,92%,–,–,–,–,–,–
CC(=O)OCc1ccc(C(=O)Oc2ccc3cc(C(=N)N)ccc3c2)o1 [compound 9],500,900,2000,300,300,4000,100,100,96,77%,–,–,–,–,–,–
CSCc1ccc(C(=O)Oc2ccc3cc(C(=N)N)ccc3c2)o1 [compound 11],200,500,200,300,200,900,100,100,99,88%,–,–,–,–,–,–
COc1ccc2[nH]c(C(=O)Oc3ccc4cc(C(=N)N)ccc4c3)cc2c1 [compound 33],200,2000,10000,–,2000,2000,–,–,–,–,–,40,–,–,–,–
COc1ccc2c(c1)c(CC(=O)Oc1ccc3cc(C(=N)N)ccc3c1)c(C)n2C(=O)c1ccc(Cl)cc1 [compound 35],1,100,10000,90,400,800,–,–,–,–,–,–,–,–,–,–
N=C(N)c1ccc2cc(OC(=O)C=Cc3c[nH]c4ccccc34)ccc2c1 [compound 38],9000,800,–,–,–,600,–,–,–,–,17%,11,42,–,–,–
N=C(N)c1ccc2cc(OC(=O)c3ccc(Cn4ccnc4)cc3)ccc2c1 [compound 42],2000,2000,5000,–,–,–,–,–,–,–,–,13,–,–,–,–
N=C(N)c1ccc2cc(OC(=O)c3ccc4[nH]cnc4c3)ccc2c1 [compound 43],100,–,–,–,300,500,–,–,–,–,41%,46,–,31,–,–
N=C(N)c1ccc2cc(OC(=O)C=Cc3cccnc3)ccc2c1 [compound 50],6000,4000,–,–,5000,–,–,–,–,–,NE (the percentage inhibition is less than 10%),14,–,–,18,–
N=C(N)c1ccc2cc(OC(=O)c3ccc4ccccc4n3)ccc2c1 [compound 52],–,–,–,–,–,–,100,97,99,97%,–,–,29,–,< 10,–
N=C(N)c1ccc2cc(OC(=O)C3CCN(C(=O)OCc4ccccc4)CC3)ccc2c1 [compound 55],60,3000,2000,–,3000,400,–,–,–,–,–,41,–,–,–,–
CN1c2ccccc2Sc2ccc(CC(=O)Oc3ccc4cc(C(=N)N)ccc4c3)cc21 [compound 61],3000,–,–,–,2000,–,–,–,–,–,17%,–,–,31,16,3000
N=C(N)c1ccc2cc(OC(=O)C3CCNCC3)ccc2c1 [compound 64],–,–,–,–,–,7000,–,–,–,–,–,–,45,–,–,–
